Measured values taken from ChEMBL document CHEMBL1142231, “Proline-rich tyrosine kinase 2 regulates osteoprogenitor cells and bone formation, and offers an anabolic treatment approach for osteoporosis” (Proc Natl Acad Sci U S A, 2007).
The source made the active and inactive calls. No cut-off for these calls is given here.

Tests used:
Rattus norvegicus [1] = assay: Effect on bone metabolism in po dosed ovariectomized Sprague-Dawley rat assessed as bone formation rate of proximal tibia cancellous bone; format: functional
Rattus norvegicus [2] = assay: Effect on bone turnover in po dosed ovariectomized Sprague-Dawley rat assessed as mineralizing surface of proximal tibia cancellous bone; format: functional
Rattus norvegicus [3] = assay: Prevention of bone loss in po dosed ovariectomized Sprague-Dawley rat assessed as osteoclast surface of proximal tibia cancellous bone; format: functional
Rattus norvegicus [4] = assay: Prevention of bone loss in ovariectomized Sprague-Dawley rat assessed as osteoclast surface of proximal tibia cancellous bone at 30 mg/kg, po administered daily for 28 days; format: functional
Rattus norvegicus [5] = assay: Prevention of bone loss in ovariectomized Sprague-Dawley rat assessed as osteoclast surface of proximal tibia cancellous bone at 10 mg/kg, po administered daily for 28 days; format: functional
Rattus norvegicus [6] = assay: Effect on bone resorption in ovariectomized Sprague-Dawley rat assessed as serum C-telopeptide degradation product at 10 mg/kg, po administered daily for 28 days; format: functional, organism-based; parameters: dose 10 mg/kg
Rattus norvegicus [7] = assay: Increase in bone formation in ovariectomized Sprague-Dawley rat assessed as mineral apposition rate of proximal tibia cancellous bone at 30 mg/kg, po administered daily for 28 days; format: functional
Rattus norvegicus [8] = assay: Effect on bone resorption in ovariectomized Sprague-Dawley rat assessed as serum C-telopeptide degradation product at 30 mg/kg, po administered daily for 28 days; format: functional, organism-based; parameters: dose 30 mg/kg
Rattus norvegicus [9] = assay: Effect on bone metabolism in ovariectomized Sprague-Dawley rat assessed as bone formation rate of proximal tibia cancellous bone at 30 mg/kg, po administered daily for 28 days; format: functional
Rattus norvegicus [10] = assay: Effect on bone metabolism in ovariectomized Sprague-Dawley rat assessed as bone formation rate of proximal tibia cancellous bone at 10 mg/kg, po administered daily for 28 days; format: functional
Rattus norvegicus [11] = assay: Increase in bone formation in ovariectomized Sprague-Dawley rat assessed as mineralizing surface of proximal tibia cancellous bone at 10 mg/kg, po administered daily for 28 days; format: functional
Mesenchymal stem cell = assay: Increase in alkaline phosphatase activity in human mesenchymal stem cells; format: functional, cell-based
Rattus norvegicus [12] = assay: Increase in bone formation in ovariectomized Sprague-Dawley rat assessed as mineral apposition rate of proximal tibia cancellous bone at 10 mg/kg, po administered daily for 28 days; format: functional
Rattus norvegicus [13] = assay: Increase in bone formation in ovariectomized Sprague-Dawley rat assessed as mineralizing surface of proximal tibia cancellous bone at 30 mg/kg, po administered daily for 28 days; format: functional

SMILES	Activity (Rattus norvegicus [1]) [microm2/micrometer/d]	Activity (Rattus norvegicus [2]) [%]	Activity (Rattus norvegicus [3]) [%]	Activity (Rattus norvegicus [4]) [%]	Activity (Rattus norvegicus [5]) [%]	Activity (Rattus norvegicus [6])	Activity (Rattus norvegicus [7]) [micrometer/day]	Activity (Rattus norvegicus [8])	Activity (Rattus norvegicus [9]) [microm2/micrometer/d]	Activity (Rattus norvegicus [10]) [microm2/micrometer/d]	Activity (Rattus norvegicus [11]) [%]	Activity (Mesenchymal stem cell)	Activity (Rattus norvegicus [12]) [micrometer/day]	Activity (Rattus norvegicus [13]) [%]
C#CC1(O)CC[C@H]2[C@@H]3CCc4cc(O)ccc4[C@H]3CC[C@@]21C (single isomer, unassigned) [ETHINYL ESTRADIOL]	77.91	20.22	4.55	–	–	–	–	–	–	–	–	–	–	–
CN(c1ccccc1CNc1nc(Nc2ccc3c(c2)CC(=O)N3)ncc1C(F)(F)F)S(C)(=O)=O.Cl	–	–	–	6.13	7.83	inactive	1.96	inactive	291.43	240.17	36.81	Active	1.77	40.6
